# Measured values published in PMC7887755, “Structure–Activity Relationships of Pyrazolo[1,5-a]pyrimidin-7(4H)-ones as Antitubercular Agents” (ACS Infectious Diseases, 2021).
# Where two headings read alike, the source gives them in different places.
# Experiments:
# [1] = test system: Mtb H37Rv; experiment: microbe, parasite or virus in culture; format: cell-based, Mycobacterium tuberculosis
# [2] = in vitro; settings: human, 24 h
# [3] = Microsomal stability, mouse; format: in vitro ADME; settings: liver microsomes of female mouse, read-out: % Remaining after 2 h incubation Mouse
# Method: (§1) % Remaining after 2 h incubation
# (§2) Compound Chemical Structure
# (§3) Table S1. Microsomal stability of some pyrazolo[1,5-a]pyrimidin-7(4H)-one derivatives
# (§4) Microsomal stability was tested in microsomes from liver of female mouse (M9566 from Sigma-Aldrich)a or microsomes
# (§5) from human liver (M0317 from Sigma-Aldrich)b.
# [4] = Microsomal stability, human; format: in vitro ADME; settings: human liver microsomes, read-out: % Remaining after 2 h incubation Human
# Method: as §1, §2, §3, §4, §5
# [5] = test system: Mtb H37Rv; experiment: MIC under iron-depleted (DFO) or iron-replete (FeCl3) conditions; format: cell-based, Mycobacterium tuberculosis; settings: MIC of the iron-modulating additive itself
# [6] = test system: Mtb H37Rv WT; experiment: microbe, parasite or virus in culture; format: cell-based; settings: Mycobacterium tuberculosis
# [7] = test system: Mtb strain H37Rv; experiment: MIC against Mtb H37Rv under various media/carbon sources; format: cell-based; settings: Mycobacterium tuberculosis
# [8] = test system: DNA damage responsive recA and radA reporters; format: cell-based, Mycobacterium tuberculosis
# [9] = test system: cell wall responsive iniBAC promoter (piniB-LUX reporter strain); format: cell-based, Mycobacterium tuberculosis
# [10] = test system: HepG2 cells; settings: 24 h
# [11] = Mycobacterium tuberculosis, H37RV, read-out: MIC in 7H9 ADC
# [12] = Mycobacterium tuberculosis, H37RV, read-out: MIC in 7H9 GCas
# [13] = Cytotoxicity (IC50) Galactose, HepG2 cells in DMEM/10% FBS with galactose
# [14] = Cytotoxicity (IC50) Glucose, HepG2 cells in DMEM/10% FBS supplemented with glucose
Compound,"MIC [1, 11] [µM]","MIC [1, 12] [µM]","IC50 [2, 13] [µM]","IC50 [2, 14] [µM]",further results
"Cc1nn2c(=O)c(C(F)(F)F)c(-c3ccccc3)[nH]c2c1-c1ccccc1 [Compound P7, 2-Methyl-3,5-diphenyl-6-(trifluoromethyl)pyrazolo[1,5-a]pyrimidin-7(4H)-one]",12.5,3.12,–,–,–
"Cc1nn2c(=O)cc(Cc3ccccc3)[nH]c2c1-c1ccccc1 [Compound P8, 5-Benzyl-2-methyl-3-phenylpyrazolo[1,5-a]pyrimidin-7(4H)-one]",75,3.12,> 100,> 100,MIC ([1]; read-out: MIC in 7H9 ADC): 75 µM
"Cc1nn2c(=O)cc(CC3CCCCC3)[nH]c2c1-c1ccccc1 [Compound P9, 5-(Cyclohexylmethyl)-2-methyl-3-phenylpyrazolo[1,5-a]pyrimidin-7(4H)-one]",> 100,> 100,50.5,85.8,–
"Cc1nn2c(=O)cc(CN3CCOCC3)[nH]c2c1-c1ccccc1 [Compound P10, 2-Methyl-5-(morpholinomethyl)-3-phenylpyrazolo[1,5-a]pyrimidin-7(4H)-one]",> 100,> 100,> 100,> 100,–
"Cc1nn2c(=O)cc(-c3ccc(Cl)c(Cl)c3)[nH]c2c1-c1ccccc1 [Compound P20, 5-(3,4-Dichlorophenyl)-2-methyl-3-phenylpyrazolo[1,5-a]pyrimidin-7(4H)-one]",2.34,1.56,55.7,> 100,remaining at 2 h [3]: 41%; improvement in MIC compared to the initial hit 1 [1]: 5 fold; remaining at 2 h [4]: 55%
"Cc1nn2c(=O)cc(-c3ccccc3)[nH]c2c1C [Compound P21, 2,3-Dimethyl-5-phenylpyrazolo[1,5-a]pyrimidin-7(4H)-one]",> 100,12.5,> 100,> 100,–
"O=c1cc(-c2ccccc2)[nH]c2c(-c3ccccc3)cnn12 [Compound P22, 3,5-Diphenylpyrazolo[1,5-a]pyrimidin-7(4H)-one]",12.5,6.25,> 100,> 100,–
"CC(C)c1nn2c(=O)cc(-c3ccccc3)[nH]c2c1-c1ccccc1 [Compound P23, 2-Isopropyl-3,5-diphenylpyrazolo[1,5-a]pyrimidin-7(4H)-one]",> 100,12.5,86.2,> 100,–
"O=c1cc(-c2ccc(F)c(F)c2)[nH]c2c(-c3ccc(Cl)cc3)cnn12 [Compound P26, 3-(4-Chlorophenyl)-5-(3,4-difluorophenyl)pyrazolo[1,5-a]pyrimidin-7(4H)-one]",12.5,12.5,18.5,57.2,potency relative to P25 [1]: 4 fold
"O=c1cc(-c2ccc(F)c(F)c2)[nH]c2c(-c3ccccc3)c(C(F)(F)F)nn12 [Compound P27, 5-(3,4-Difluorophenyl)-3-phenyl-2-(trifluoromethyl)pyrazolo[1,5-a]pyrimidin-7(4H)-one]",> 100,100,> 100,> 100,–
[Cl][Fe]([Cl])[Cl] [FeCl3],–,–,–,–,MIC [5]: 500 µM
"NNC(=O)c1ccncc1 [INH, isoniazid, reference compound]",0.23,0.16,–,–,"MIC [6]: 0.04 µM; MIC ([7]; GAST/Fe, read-out: MIC GAST): 0.1 µM; MIC ([7]; read-out: MIC 7H9): 0.39 µM; MIC ([7]; read-out: MIC Chol): 0.2 µM; MIC ([7]; read-out: MIC GBSA/DBSA): 0.3 µM"
"COc1c(N2C[C@@H]3CCCN[C@@H]3C2)c(F)cc2c(=O)c(C(=O)O)cn(C3CC3)c12 [MOX, moxifloxacin]",–,–,–,–,reporter gene assay DNA damage [8]: yes
CC(C)=CCC/C(C)=C/CNCCNC1C2CC3CC(C2)CC1C3 (stereo not drawn) [SQ109],–,–,–,–,reporter gene assay cell wall [9]: yes
"CC/C(=C(\c1ccccc1)c1ccc(OCCN(C)C)cc1)c1ccccc1 [Tamoxifen, reference compound]",–,–,5.93,4.18,–
Antimycin [reference compound],–,–,–,–,"IC50 ([10]; read-out: Cytotoxicity (IC50) Galactose, HepG2 cells in DMEM/10% FBS with galactose): 3.4 µM; IC50 ([10]; read-out: Cytotoxicity (IC50) Glucose, HepG2 cells in DMEM/10% FBS supplemented with glucose): 69.7 µM"
